The text below walks through data of patent publication US8822528B2, “Monensin derivatives for the treatment and prevention of protozoal infections” (Merial Limited, priority 2010, dated 2014).

Series [1] relates to MDBK cells. Kind of series: Cytotoxicity testing / IC50 determination on MDBK cells (Cell Titer, tetrazolium to formazan, 96-well). Format: cell-based, Bovine. As to conditions: summary statement. The text has this:
Cytotoxicity testing. For the prevention and the treatment, a compound is considered effective when it is non toxic or its toxicity is low for host cells but high for the target (parasite). For cytotoxicity testing and determination of the IC50, the in vitro model is one of the best methods, enabling this type of testing to be carried out directly on cells alone without fear of fatal consequences as in vivo. The IC50 is the maximum concentration at which at least 50% of cells survive following a treatment. All concentrations above it are excluded for the test; values below it, on the other hand, can be tested in order to determine the concentration that will totally or partially eliminate the parasite or inhibit its development. This test consists in testing several concentrations on cell culture in 96-well plate; the concentrations are tested in duplicate, and the cytotoxicity of the molecules is evaluated with special kits based on an oxidation-reduction reaction at the cell-machinery level (mitochondria).
As in the MTT kit (Promega), the reagent used is the tetrazolium salt MTT (3-[4,5-dimethylthiazol-2-yl]-2,5-diphenyltetrazolium bromide). The tetrazolium ring that it contains is reduced to formazan by the mitochondrial succinate dehydrogenase of active living cells. The color of the medium thus changes from yellow to purplish-blue. The intensity of this color is proportional to the number of living cells present at the time of testing but also to their metabolic activity. The percentage of living cells is determined from the ratio between the absorbance for the test well and the absorbance for the control well (cells alone).
Initially, the inhibitory concentration IC50 was determined. It corresponded to the concentration of polyether ionophore allowing the viability of 50% of cells. Bovine cells were cultured and incubated for 24 hrs at 40° C. in the wells of a 96-well plate. Then, a fixed concentration ([…]) of polyether ionophore was added to each well. The cells were incubated at 40° C. for 24 hrs. 20 μL, of “Cell Titer” was added to each well. The cells were again incubated for 30 min to 1 hour at 40° C. before the plate was read in a plate reader at a wavelength of 490 nm (maximum absorption of the formazan). This reading determined the optical density (OD) of each well and allowed access to the percentage of inhibition. I50=(ODtreated/ODcontrol)×100 […]=[1−(ODtreated/ODcontrol)]×100.
FIG. 26 represents a 96-well plate after adding “Cell Titer”. The intensity of colours depends on the toxicity of the polyether ionophore tested. Increasing color intensity corresponded to increasing number of living cells. […]

The subject of series [2] is Eimeria tenella. Description: In vitro efficacy against Eimeria tenella in infected MDBK cell culture (schizonts/merozoites counted microscopically). Type of series: cell-based. On the set-up: Activity in inhibiting development of Eimeria tenella in vitro (schizonts and merozoites) / Presence of schizonts/merozoites (microscopic observation, picture): dose or concentration left out as unconfirmed. As to conditions: for Activity towards the parasite Eimeria tenella (summary): summary of in vitro testing of fifteen polyether ionophores; for Development of Eimeria tenella in vitro / Inhibition of the parasite Eimeria tenella: third series; for Development of Eimeria tenella in vitro: at very low concentrations (<0.39 μg/μL) (FIG. 31B); for Activity in inhibiting development of Eimeria tenella in vitro (schizonts and merozoites) / Presence of schizonts/merozoites (microscopic observation, picture): second series; for Activity in inhibiting development of Eimeria tenella in vitro (schizonts and merozoites): one concentration of 3.125 (FIG. 30A); for Presence of schizonts/merozoites (microscopic observation, picture): 3.125, FIG. 30B/30C; for Inhibition of development of Eimeria tenella in cell culture (formation of merozoites): five different concentrations in the presence of the parasite (FIG. 30); for Inhibition of the parasite Eimeria tenella: at low concentrations (FIG. 31B). The procedure:
Once the IC50 concentration was determined, the test was performed on infected cells. The working concentration chosen was always lower than IC50.
After having cultured cells at 40° C. in each well of a 96-well plate, they were treated with a specific concentration (<IC50, allowing the inhibition of parasites in over 50% of cells) of polyether ionophore. Then, the sporozoites of Eimeria tenella were excysted and the cells infected with purified sporozoites. After incubation for 24 hrs at 40° C., the medium was changed. The efficiency of molecules was evaluated microscopically after 40 hrs and 48 hrs. The release of merozoites was noted (FIG. 30B). Thus, in explicit cases, the merozoites released were counted; in ambiguous cases, the quantitative PCR ([…]) will be used. For each test, a positive control of treatment (with monensin 1a) and a positive control of infection was made.

Structures are written as SMILES.

With `CCC1(C2OC(C3OC4(COC(=O)CO4)C(C)CC3C)CC2C)CCC(C2(C)CCC3(CC(O)C(C)C(C(C)C(OC)C(C)C(=O)O)O3)O2)O1` (stereo not drawn) [Compound 12, Oxo-dioxane Monensin], in series [1], the “Cytotoxicity (summary in words)” value is listed as “very low cytotoxicities”. Besides, in series [2], the “Activity towards the parasite Eimeria tenella (summary)” value was “significant activity” and the “Development of Eimeria tenella in vitro” value is “completely inhibited”.
As for `CCC1(C2OC(C3OC(O)(CO)C(C)CC3C)CC2C)CCC(C2(C)CCC3(CC(O)C(C)C(C(C)C(OC)C(C)C(=O)NC(C(=O)OC)c4ccc(F)cc4)O3)O2)O1` (stereo not drawn) [Compound 4c, Methyl 2′-(monensinamido)-2′-(4′-fluorophenyl)acetate], the “Activity in inhibiting development of Eimeria tenella in vitro (schizonts and merozoites)” value (from here on “Activity in inhibiting development”) in series [2] is recorded as “no significant activity”.
For `CCC1(C2OC(C3OC(CO)(OC)C(C)CC3C)CC2C)CCC(C2(C)CCC3(CC(O)C(C)C(C(C)C(OC)C(C)C(=O)O)O3)O2)O1` (stereo not drawn) [Compound 8a, 25-Methoxymonensin], in series [1], the “Cytotoxicity (summary in words)” value is recorded as “very low cytotoxicities”. Moreover, in series [2], the “Presence of schizonts/merozoites (microscopic observation, picture)” value (“Presence of schizonts/merozoites” for short) is “absence of schizonts and merozoites”; the “Activity in inhibiting development” value was “very high efficacy”; the “Activity towards the parasite Eimeria tenella (summary)” value is “significant activity”. In series [2] (listed as EV 02058), the “Presence of schizonts/merozoites” value was “merozoites not present”.
In the case of `CCC1(C2OC(C3OC(O)(CO)C(C)CC3C)CC2C)CCC(C2(C)CCC3(CC(O)C(C)C(C(C)C(OC)C(C)C(=O)NCc4ccc(C(=O)OC)cc4)O3)O2)O1` (stereo not drawn) [Compound 3b, 1-(4-methylbenzoate)methylene Amidomonensine], the “Inhibition of development of Eimeria tenella in cell culture (formation of merozoites)” value (shortened to “Inhibition … (formation of merozoites)”) in series [2] (first series) was “did not appear to significantly inhibit”.
As for `CCC1(C2OC(C3OC(CO)(OCC(=O)O)C(C)CC3C)CC2C)CCC(C2(C)CCC3(CC(O)C(C)C(C(C)C(OC)C(C)C(=O)O)O3)O2)O1` (stereo not drawn) [Compound 27, O-25-glycolic Acid Monensin], in series [1], the “Cytotoxicity (summary in words)” value is recorded as “very low cytotoxicities”. Also, in series [2], the “Activity towards the parasite Eimeria tenella (summary)” value was “significant activity” and the “Development of Eimeria tenella in vitro” value was “completely inhibited”.
For the compound `CCC1(C2OC(C3OC(O)(CO)C(C)CC3C)CC2C)CCC(C2(C)CCC3(CC(O)C(C)C(C(C)C(OC)C(C)C(=O)NCc4ccc(C(=O)O)cc4)O3)O2)O1` (stereo not drawn) [Compound 6a, 1-(benzoic acid)methylene Amidomonensine], in series [2] (first series), the “Inhibition … (formation of merozoites)” value is “did not appear to significantly inhibit”.
In the case of `CCC12CCC(O1)C1(C)CCC3(CC(OC)C(C)C(O3)C(C)C(OC)C(C)C(=O)OCC3(OC)OC(C(C)CC3C)C3CC(C)C2O3)O1` (stereo not drawn) [Compound 14a, 7,25-dimethoxylactone], in series [2], the “Presence of schizonts/merozoites” value is “merozoites present”; the “Activity in inhibiting development” value was “no significant activity”.
With `CCC12CCC(O1)C1(C)CCC3(CC(O)C(C)C(O3)C(C)C(OC)C(C)C(=O)OCC3(O)OC(C(C)CC3C)C3CC(C)C2O3)O1` (stereo not drawn) [Compound 7, Monensin Lactone], the “Concentration at which formation of merozoites was inhibited” value in series [2] (first series, at high concentrations (FIG. 30)) is listed as “greater than or equal to 12.5 g/μL”.
`CCC12CCC(O1)C1(C)CCC3(CC(=O)C(C)C(O3)C(C)C(OC)C(C)C(=O)OCC(=O)C(C)CC(C)C(=O)C3CC(C)C2O3)O1` (stereo not drawn) [Compound 18, Triacetone Lactone]: in series [2], the “Inhibition of the parasite Eimeria tenella” value is “did not inhibit”.
Consider `CCC1(C2OC(C3OC(O)(CO)C(C)CC3C)CC2C)CCC(C2(C)CCC3(CC(O)C(C)C(C(C)C(OC)C(C)C(=O)NCc4ccccc4)O3)O2)O1` (stereo not drawn) [Compound 3a, 1-benzylamidomonensine], for which the “Inhibition … (formation of merozoites)” value in series [2] (first series) was “did not appear to significantly inhibit”.
Turning to `CC[C@@]1([C@@H]2O[C@@H]([C@H]3O[C@@](O)(CO)[C@H](C)C[C@@H]3C)C[C@@H]2C)CC[C@H]([C@]2(C)CC[C@]3(C[C@H](O)[C@@H](C)[C@@H]([C@@H](C)[C@@H](OC)[C@H](C)C(=O)O)O3)O2)O1` [Compound 1a, Monensin], in series [2] (first series), the “Inhibition … (formation of merozoites)” value is on record as “inhibited the formation of merozoites at very low concentrations”.
Consider `CCC1(C2OC(C3OC(=O)C(C)CC3C)CC2C)CCC(C2(C)CCC3(CC(=O)C(C)C(C(C)C(OC)C(C)C(=O)O)O3)O2)O1` (stereo not drawn) [Compound 19, oxo-lactone Monensin], for which the “Cytotoxicity (summary in words)” value in series [1] is listed as “very low cytotoxicities”. In series [2], the “Activity in inhibiting development” value is given as “significant efficacy”; the “Activity towards the parasite Eimeria tenella (summary)” value is “satisfactory and encouraging results”.
With `CCC1(C2OC(C3OC4(COC(=O)CO4)C(C)CC3C)CC2C)CCC(C2(C)CCC3(CC(=O)C(C)C(C(C)C(OC)C(C)C(=O)O)O3)O2)O1` (stereo not drawn) [Compound 26, 7-oxo-monensin Oxodioxane], in series [2], the “Inhibition of the parasite Eimeria tenella” value is given as “did not inhibit”.
For `CCC1(C2OC(C3OC(O)(CO)C(C)CC3C)CC2C)CCC(C2(C)CCC3(CC(O)C(C)C(C(C)C(OC)C(C)C(=O)NCc4cccc(C(=O)OC)c4)O3)O2)O1` (stereo not drawn) [Compound 3c, 1-(3-methylbenzoate)methylene Amidomonensin], the “Activity in inhibiting development” value in series [2] is “no significant activity”.
For the compound `CCC1(C2OC(C(O)C(C)CC(C)C(=O)O)CC2C)CCC(C2(C)CCC3(CC(=O)C(C)C(C(C)C(OC)C(C)C(=O)O)O3)O2)O1` (stereo not drawn) [Compound 31, 7-oxo, 21-hydroxy, 25-acid Monensin], in series [2] (third series (FIG. 31B)), the “Concentration at which significantly effective against the parasite” value is given as “greater than 1.56 g/μL”. Further, in series [2], the “Inhibition of the parasite Eimeria tenella” value is given as “did not inhibit”.
